Patent US20090232909A1, “Method for determining physiological effects of hemoglobin” (priority 1999, published 2009)
Entries after “also recorded” stand apart in the source; their conditions may differ.

Tests used:
Hb = Hb (Homo sapiens, UniProt P68871+P69905); assay: metHb production by UV-visible difference spectroscopy after NO addition to variously oxygenated Hb; format: biochemical; parameters: purchased Apex Bioscience (Research Triangle Park, N.C.); conditions: 10 mM phosphate
Protocol: Nitroso/nitrosyl derivatives of Hb were measured using a photolysis-chemiluminescence technique [6-fold excess HgCl2 over protein was added to displace S-nitrosothiol (SNO) (Stamler, J. S., et al., Science, 276:2034-2037, 1997)]. Samples were kept on ice for a period of 5 minutes to 2 hours before analyses. MetHb was monitored by UV-visible spectroscopy as the difference absorption above the linear baseline (600-700 nm), and EPR (below).
The samples used in FIGS. 1A-1D were assayed for metHb production by UV-visible difference spectroscopy. The data are normalized to added [NO]. As in FIGS. 1A-1D: open diamonds, 10 mM phosphate; open circles, 10 mM phosphate plus borate; open squares, 10 mM phosphate plus SOD; filled circles and filled squares, 100 mM phosphate. The dotted (10 mM phosphate) and dashed (100 mM phosphate) lines are calculated by using Eq. 5 and Fe(II)NO yields in FIGS. 1C and 1D, respectively. […] Systematic deviations are most pronounced in low phosphate at high oxygen saturation—i.e., under physiological conditions.

[1] = tested on: intact human erythrocytes; assay: Distribution of NO groups in membrane and cytosolic fractions of RBCs exposed to NO; format: cell-based; conditions: 0.1 mM DIDS before NO, NO:heme 1:250
Protocol: RBCs derived from fresh venous blood and suspended in oxygen-purged phosphate-buffered saline (PBS) were exposed in gas-tight vials to NO, added as aliquots of oxygen-purged NO-saturated PBS to yield the specified NO:heme ratios based on spectrophotometric assessment of heme content. Exposure to NO was for 5 mins followed by rinses in PBS at 21% O2. RBCs were lysed in 10 mM MOPS, 0.1 mM DTPA, pH 7, followed by centrifugation at 20,000×g for 10 mins to produce membrane and cytosolic fractions, which were solubilized in 1% TX-100. Quantification of NO groups was by photolysis/chemiluminescence (McMahon, T. J. & Stamler, J. S., Meth. Enzymol. 301:99-114, 1999). SNO content was measured as NO removed by treating sample aliquots for 5 mins with HgCl2 at 5-fold molar excess over estimated thiol content (Gow, A. J. & Stamler, J. S., Nature 391:169-173, 1998; Gow, A. J. et al., Proc. Natl. Acad. Sci. USA 96:9027-9032, 1999; McMahon, T. J. & Stamler, J. S., Meth. Enzymol. 301:99-114, 1999). […]
(§1) Immunoprecipitation was carried out by incubation of TX-100 or NP-40 extracts with antibodies followed by protein G-Sepharose. […] Binding of SNO-Hb to IOVs was assessed in 10 mM MOPS buffer, pH 7, at room temperature and 21% O2. Incubation was for 15 mins before IOVs were solubilized in 1% TX-100, and heme content was assessed spectrophotometrically. […]

[2] = tested on: inside-out vesicles (IOV); assay: Transnitrosylation of inside-out vesicles (IOV) by SNO-Hb; format: biochemical; conditions: IOVs (or source RBCs) treated before incubation with SNO-Hb
Protocol: RBCs derived from fresh venous blood and suspended in oxygen-purged phosphate-buffered saline (PBS) were exposed in gas-tight vials to NO, added as aliquots of oxygen-purged NO-saturated PBS to yield the specified NO:heme ratios based on spectrophotometric assessment of heme content. Exposure to NO was for 5 mins followed by rinses in PBS at 21% O2. RBCs were lysed in 10 mM MOPS, 0.1 mM DTPA, pH 7, followed by centrifugation at 20,000×g for 10 mins to produce membrane and cytosolic fractions, which were solubilized in 1% TX-100. Quantification of NO groups was by photolysis/chemiluminescence (McMahon, T. J. & Stamler, J. S., Meth. Enzymol. 301:99-114, 1999). SNO content was measured as NO removed by treating sample aliquots for 5 mins with HgCl2 at 5-fold molar excess over estimated thiol content (Gow, A. J. & Stamler, J. S., Nature 391:169-173, 1998; Gow, A. J. et al., Proc. Natl. Acad. Sci. USA 96:9027-9032, 1999; McMahon, T. J. & Stamler, J. S., Meth. Enzymol. 301:99-114, 1999). IOVs were prepared from outdated RBCs following Kondo (Kondo, T., Meth. Enzymol. 171:217-225, 1989) and stripped of peripheral membrane-bound proteins by washing for 60 mins in 0.5 M NaCl/100 mM Tris at pH 8. Chymotrypsin treatment of IOVs was for 15 mins at pH 7 and 37° C. with 5 U enzyme/mg IOV protein. For transnitrosylation, IOVs were incubated with SNO-Hb (50 nmoles SNO-Hb/mg IOV protein, about 10-fold excess over AE1) for 15 mins at pH 7 and 37° C. SNO-Hb was prepared from free or immobilized HbA (Apex) by selective S-nitrosylation of cysβ93 with S-nitroso-cysteine (Jia, L. et al., Nature 380:221-226, 1996; Stamler, J. S. et al., Science 276:2034-2037, 1997; McMahon, T. J. & Stamler, J. S., Meth. Enzymol. 301:99-114, 1999). Hb was immobilized on cyanogen bromide-activated Sepharose 4b.
as §1, with “spectrophotometrically. When employed, RBCs were treated for 60 mins with DIDS (0.1 mM; calculated 10-fold molar excess over AE1), then washed thoroughly to remove unreacted DIDS.” for “spectrophotometrically.”
IOVs incubated with SNO-Hb and washed at pH 8 to remove bound Hb incorporated about 450 pmol NO/milligram of TX-100-extracted IOV protein (FIG. 7D). […] It is important to note that SNO was not detected in extracts of IOVs exposed to NO in the absence of Hb (not shown). […] Following centrifugal separation, washes at pH 7 and solubilization in TX-100, extracts of IOVs were free of Hb as assessed by spectrophotometric detection of heme.

Sequence of Hb (P69905 2-142 limits assumed): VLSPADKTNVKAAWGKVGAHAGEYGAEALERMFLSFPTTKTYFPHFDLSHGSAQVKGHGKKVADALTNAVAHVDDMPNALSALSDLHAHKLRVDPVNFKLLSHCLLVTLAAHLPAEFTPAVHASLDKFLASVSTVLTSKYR
Sequence of Hb (P68871 2-147 limits assumed): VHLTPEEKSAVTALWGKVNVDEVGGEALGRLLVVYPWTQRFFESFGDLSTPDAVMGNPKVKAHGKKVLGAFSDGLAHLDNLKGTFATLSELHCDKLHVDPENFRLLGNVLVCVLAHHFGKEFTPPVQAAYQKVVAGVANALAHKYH

[N]=O [NO, nitric oxide]
shortfall in the Fe(III) and Fe(II)NO products (Hb): ≤ 20 % of added [NO]0

O=S(=O)(O)c1cc(N=C=S)ccc1C=Cc1ccc(N=C=S)cc1S(=O)(=O)O [DIDS, 4,4′-diisothiocyanatostilbene-2,2′-disulfonic acid]
effect on SNO in the membrane fraction [1]: greatly decreased; also recorded: substantially decreases
effect on net formation of NO-liganded Hb (total NO incorporated by RBCs) [1]: did not reduce; also recorded: does not reduce
effect of prior treatment on transfer of NO groups from SNO-Hb to IOVs [2]: reduced significantly; also recorded: greatly reduced
